Source: PMC6435570, “Zafirlukast Is a Dual Modulator of Human Soluble Epoxide Hydrolase and Peroxisome Proliferator-Activated Receptor γ” (Frontiers in Pharmacology, 2019)
“Also recorded” adds a separate entry of the source.

Legend:
[1] = test system: 3T3-L1 cells; experiment: 3T3-L1 adipocyte differentiation, Oil Red O lipid accumulation; assay type: cell-based, murine; details: differentiation cocktail plus zafirlukast or montelukast 1, 5, 10 μM or rosiglitazone 2 μM; 14 days
Method: 3T3-L1 cells were differentiated into adipocytes for 14 days according to the protocol of [Zebisch et al. (2012)]. For this, cells were seeded in 6-well plates ([…]) and differentiation was induced after 48 h by addition of a differentiation cocktail containing 1 μg/mL insulin, 0.25 μM dexamethasone and 0.5 mM isobutylmethylxanthine (IBMX) in DMEM supplemented with 10% FCS and 1% PS. […] After 2 days, medium was replaced by DMEM supplemented with 10% FCS, 1% PS and 1 μg/mL insulin for 2 more days. Afterwards, cells were kept for lipid droplet accumulation in DMEM containing 10% FCS and 1% PS until day 15. Media were replaced every other day.
Differentiated 3T3-L1 cells were washed with PBS and subsequently fixed for 60 min with formaldehyde (4% in PBS). Afterwards, cells were thoroughly rinsed with 60% isopropanol and incubated with Oil Red O solution (0.3% in 60% isopropanol) for 120 min. This was followed by the removal of the staining solution and thorough rinsing of the cell layer with ultrapure water. Finally, the plates were dried and pictures of the stained cell layers were taken.
For quantification of the accumulated dye, 3T3-L1 cells were seeded in 24-well plates (0.55 × 10^5/well) instead of 6-wells and the differentiation was carried out as described in the section ‘Adipocyte differentiation’. After 14 days of differentiation, cells were fixed and stained as described above. […] 100 μl of dye extract were transferred to a 96-well plate and absorbance was measured (λabs = 510 nm) by an Infinite F200 plate reader (Tecan Group Ltd., Männedorf, Switzerland). […]
As master regulator of adipocyte differentiation in men and mice, PPARγ plays a crucial role in the cell’s commitment to the adipocyte lineage by controlling important functions such as intracellular biosynthesis, transport and accumulation of lipids. […] Upon differentiation, different parameters such as lipid accumulation and PPARγ target gene expression can be assessed to investigate the PPARγ activating potential of the compounds of interest. […]

[2] = target: T1, human PPARδ ligand binding domain (Homo sapiens, UniProt Q03181); experiment: PPAR reporter gene assay (Gal4 hybrid, PPARδ); assay type: cell-based; details: HEK-293T, reference L165,041 1 μM, tested up to 10 μM
T1 construct: expressed in transfected cells; host or cells: HEK-293T
T1 sequence (Q03181 211-439 limits assumed): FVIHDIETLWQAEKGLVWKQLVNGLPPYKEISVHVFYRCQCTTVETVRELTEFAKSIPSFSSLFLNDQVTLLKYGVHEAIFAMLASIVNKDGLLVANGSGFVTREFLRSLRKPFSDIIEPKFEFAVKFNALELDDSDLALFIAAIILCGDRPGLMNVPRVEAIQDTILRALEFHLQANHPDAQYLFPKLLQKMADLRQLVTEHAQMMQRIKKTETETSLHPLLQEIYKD
Method: HEK-293T cells were seeded in 96-well plates (2.5 × 10^4 cells/well) and were allowed to adhere overnight. Before transfection, medium was changed to Opti-MEM without supplements. Transient plasmid transfection was carried out using Lipofectamine LTX reagent (Invitrogen, Carlsbad, CA, United States) according to the manufacturer’s protocol with pFR-Luc (Stratagene, La Jolla, CA, United States), pRL-SV40 (Promega, Fitchburg, MA, United States) and pFA-CMV-PPAR-LBD ([Rau et al., 2006]). 5 h after transfection, medium was changed to Opti-MEM supplemented with penicillin (100 U/mL) and streptomycin (100 μg/mL), now additionally containing 0.1% DMSO and the respective test compound or 0.1% DMSO alone as untreated control. Each concentration was tested in triplicates and each experiment was repeated independently at least four times. Following overnight (12–16 h) incubation with the test compounds, cells were assayed for luciferase activity using the Dual-Glo^TM Luciferase Assay System (Promega, Fitchburg, MA, United States) according to the manufacturer’s protocol. Luminescence was measured with an Infinite M200 luminometer (Tecan Group Ltd., Männedorf, Switzerland). Normalization of transfection efficiency and cell growth was done by division of firefly luciferase data by renilla luciferase data and multiplying the value by 1000 resulting in relative light units (RLU). Fold activation was obtained by dividing the mean RLU of a test compound at a respective concentration by the mean RLU of untreated control. Relative activation was obtained by dividing the fold activation of a test compound at a respective concentration by the fold activation of the respective PPARα, γ or δ full agonist GW-7647, pioglitazone or L165,041 at 1 μM. EC50 and standard deviation were calculated with the mean relative activation values of at least four independent experiments by SigmaPlot 10.0 (Systat Software GmbH, Erkrath, Germany) using a four parameter logistic regression. […]

[3] = test system: PPARγ2 phosphorylation at serine 273; experiment: TNFα triggered PPARγ Ser273 phosphorylation in 3T3-L1 adipocytes (Western Blot); assay type: cell-based, murine; details: zafirlukast 1 or 10 μM or rosiglitazone 2 μM for 45 min, then TNFα 50 ng/mL 30 min
Method: Total 3T3-L1 or HEP-G2 cell lysates were prepared in lysis buffer (20 mM Tris-HCl, pH 7.4, 150 mM NaCl, 2 mM EDTA, 1% Triton X-100, 0.5% NP-40) supplemented with protease and phosphatase inhibitors (PhosSTOP^TM + cOmplete^TM Mini, Roche Diagnostics GmbH, Mannheim, Germany). Protein concentrations were quantified using the Pierce^TM BCA Protein Assay Kit (Thermo Scientific, Waltham, MA, United States). Total protein (30 μg/lane) was separated by SDS-polyacrylamide gel electrophoresis and transferred to nitrocellulose membranes (GE Healthcare Life Sciences, Little Chalfont, United Kingdom). Membranes were blocked with Odyssey blocking reagent (LI-COR Biosciences, Bad Homburg, Germany) for 1 h at room temperature. […] Afterwards, membranes were washed and incubated with fluorescence conjugated secondary antibodies (IRDye, LI-COR Biosciences, Bad Homburg, Germany). […] The density of the immune reactive bands was analyzed using the Image Studio 5.2 software (LI-COR Biosciences, Bad Homburg, Germany).
We induced this post-translational modification by short-term treatment of the differentiated cells with the cytokine TNFα, generating a pro-inflammatory milieu. […] For this, we used an assay system in which the recruitment of the fluorescence-tagged PPARγ coactivator CBP to the PPARγ-LBD was assessed by time-resolved FRET technique in presence and absence of rosiglitazone.

Row | PPARδ EC50 [2] | Compound | Lipid accumulation (Oil Red O staining) [1] | TNFα induced phosphorylation of PPARγ2 at serine 273 [3]
1 | i.a. @ 10 μM | CC(C)(O)c1ccccc1CC[C@@H](SCC1(CC(=O)O)CC1)c1cccc(/C=C/c2ccc3ccc(Cl)cc3n2)c1 [Montelukast, montelukast] | did not trigger any lipid accumulation; also recorded: did not induce cell lipid accumulation | 
2 | i.a. @ 10 μM | COc1cc(C(=O)NS(=O)(=O)c2ccccc2C)ccc1Cc1cn(C)c2ccc(NC(=O)OC3CCCC3)cc12 [Zafirlukast, zafirlukast] | induced lipid accumulation in a dose-dependent manner, but to a lesser extend compared to rosiglitazone | inhibited this phosphorylation; also recorded: completely revert this phosphorylation
